“And” between values parts separate entries of the source, which are not always exact repeats. Equal values may be shown once. Where a name gives a salt, the structure may show the parent alone.
How the values were obtained:
[1] = molecular target: T1, cloned human kappa receptor (Homo sapiens, UniProt P41145); experiment: biochemical; type: binding; conditions: for inhibition at 1 µM: read-out: 3H-Diprenorphin, % @ 1 uM
[2] = molecular target: T1, cloned human kappa receptor; experiment: [3H]U69593 (agonist) binding to the cloned human kappa receptor; conditions: for Ki: nM 3H-U-69,593
[3] = tested on: formalin-induced flinching; experiment: animal or person; type: in vivo, male Sprague-Dawley rats; conditions: rat, in vivo
[4] = read-out: Ki(nM) [3H]-Diprenorphin κ

T1 sequence (P41145 whole entry): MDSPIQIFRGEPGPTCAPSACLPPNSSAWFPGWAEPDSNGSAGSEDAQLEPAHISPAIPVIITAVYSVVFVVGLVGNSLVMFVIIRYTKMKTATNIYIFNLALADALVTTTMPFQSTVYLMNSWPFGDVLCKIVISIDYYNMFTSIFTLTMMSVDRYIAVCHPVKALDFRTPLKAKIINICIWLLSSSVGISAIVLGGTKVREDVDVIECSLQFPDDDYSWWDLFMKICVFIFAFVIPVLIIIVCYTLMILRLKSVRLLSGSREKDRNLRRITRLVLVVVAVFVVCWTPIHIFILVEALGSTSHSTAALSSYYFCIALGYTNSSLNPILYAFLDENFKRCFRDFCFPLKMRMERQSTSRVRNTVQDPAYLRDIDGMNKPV

Compound: CS(=O)(=O)c1ccc(CC(=O)N2CCN(S(C)(=O)=O)CC2CN2CCCC2)cc1 (racemic) [(R,S-8b), (R,S)-4-Methanesulfonyl-1-[(4-methylsulfonylphenyl)acetyl]-2-[(1-pyrrolidinyl)-methyl]piperazine hydrochloride]
- inhibition at 1 µM [1]: 41%
- Ki [2]: 20 nM and 31 nM

Compound: CS(=O)(=O)N1CCN(C(=O)Cc2ccccc2[N+](=O)[O-])[C@H](CN2CCCC2)C1.Cl (racemic) [(R,S-8c), (R,S)-4-Methanesulfonyl-1-[(2-nitrophenyl)acetyl]-2-[(1-pyrrolidinyl)-methyl]piperazine hydrochloride]
- 3H-Diprenorphin, % @ 1 uM [1]: 15% @ 1 uM
- 3H-U-69,593, % @ 1 uM [2]: 51% @ 1 uM

Compound: CS(=O)(=O)N1CCN(C(=O)Cc2c[nH]c3ccccc23)C(CN2CCCC2)C1 (racemic) [(R,S-8e), (R,S)-4-Methanesulfonyl-1-[(3-indolylacetyl-2-[(1-pyrrolidinyl)-methyl]piperazine hydrochloride]
- inhibition at 1 µM [1]: 74%
- Ki [2]: 5.3 nM and 3.2 nM

Compound: CN(C(=O)Cc1ccc(C(F)(F)F)cc1)[C@H](CN1CCCC1)c1cccc(NS(C)(=O)=O)c1.Cl [Example 3d, 2-(4-Trifluoromethylphenyl)-N-methyl-N-{[1S]-1-[3-[(methylsulfonyl)amino]phenyl]-2-[1-pyrrolidinyl]ethyl}acetamide hydrochloride]
- Ki ([1]; Ki (nM) [3H]-Diprenorphin κ): 0.28 nM
- Late Phase Formalin A50 [3]: 16.0 mg/kg
- melting point: 173 to 175 °C

Compound: CN(C(=O)Cc1ccc(S(C)(=O)=O)cc1)[C@H](CN1CCCC1)c1cccc(NS(C)(=O)=O)c1.CS(=O)(=O)O [Example 3e, 2-(4-Methanesulfonylphenyl)-N-methyl-N-{[1S]-1-[3-[(methylsulfonyl)amino]phenyl]-2-[1-pyrrolidinyl]ethyl}acetamide methanesulfonate]
- Ki ([1]; Ki (nM) [3H]-Diprenorphin κ): 3.2 nM
- Late Phase Formalin, % @ 300 [3]: 71% @ 300
- melting point: 140 to 142 °C

Compound: CN(C(=O)Cc1ccc(Cl)c(Cl)c1)[C@H](CN1CCCC1)c1cccc(NS(C)(=O)=O)c1.Cl [Example 3f, 2-(3,4-Dichlorophenyl)-N-methyl-N-{[1S]-1-[3-[(methylsulfonyl)amino]phenyl]-2-[1-pyrrolidinyl]ethyl}acetamide hydrochloride]
- Ki ([1]; Ki (nM) [3H]-Diprenorphin κ): 0.18 nM
- Late Phase Formalin A50 [3]: 8.9 mg/kg
- melting point: 240 to 242 °C

Compound: CN(C(=O)Cc1ccc(Cl)c(Cl)c1)[C@H](CN1CCCC1)c1cccc(NC(=O)/C=C\C(=O)O)c1 [Example 3h]
- Ki ([1]; Ki (nM) [3H]-Diprenorphin κ): 1.8 nM
- Late Phase Formalin, % @ 10 [3]: 59% @ 10
- melting point: 174 to 176 °C

Compound: CN(C(=O)Cc1ccccc1C(=O)O)[C@H](CN1CCCC1)c1ccccc1.Cl [Example 3kk, 2-(2-Carboxyphenyl)-N-methyl-N-{[1S]-1-phenyl-2-(1-pyrrolidinyl)ethyl}acetamide hydrochloride]
- [3H]-Diprenorphin κ, % @ 1 μM [1]: 53% @ 1 μM
- Late Phase Formalin, % @ 300 [3]: 23% @ 300
- melting point: 230 to 232 °C (dec.)

Compound: CN(C(=O)Cc1ccc(Cl)c(S(N)(=O)=O)c1)[C@H](CN1CCCC1)c1ccccc1.CS(=O)(=O)O [Example 3m, 2-(3-Sulfamoyl-4-chlorophenyl)-N-methyl-N-{[1S]-1-phenyl-2-[1-pyrrolidinyl]ethyl}acetamide methanesulfonate]
- Ki ([1]; Ki (nM) [3H]-Diprenorphin κ): 5.1 nM
- Late Phase Formalin, % @ 300 [3]: 65% @ 300
- melting point: 220 to 222 °C

Compound: CNS(=O)(=O)c1cc(CC(=O)N(C)[C@H](CN2CCCC2)c2ccccc2)ccc1F.Cl [Example 3o, 2-[3-(N-Methylsulfamoyl)-4-fluorophenyl]-N-methyl-N-{[1S]-1-phenyl-2-[1-pyrrolidinyl]ethyl}acetamide hydrochloride]
- Ki ([1]; Ki (nM) [3H]-Diprenorphin κ): 30.5 nM
- Late Phase Formalin, % @ 300 [3]: 59% @ 300
- melting point: 278 to 280 °C

Compound: CN(C(=O)Cc1ccc(C(F)(F)F)cc1NC(=O)/C=C\C(=O)O)[C@H](CN1CCCC1)c1ccccc1 [Example 3z]
- Ki ([1]; Ki (nM) [3H]-Diprenorphin κ): 1.7 nM
- Late Phase Formalin, % @ 300 [3]: 98% @ 300
- melting point: 153 to 155 °C (dec.)

Compound: CN(C(=O)Cc1ccc(O)c(NS(C)(=O)=O)c1)[C@H](CN1CCCC1)c1ccccc1 [Example 124, 2-(3-N-Methylsulfonamido-3-amino-4-hydroxyphenyl)-N-methyl-N-[(1S)-1-phenyl-2-(1-pyrrolidinyl)ethyl]acetamide]
- Ki ([1]; Ki (nM) [3H]-Diprenorphin κ): 5.6 nM
- Late Phase Formalin (i. paw), % @ 300 [3]: 77% @ 300

Compound: CN(C(=O)Cc1ccccc1NS(C)(=O)=O)[C@H](CN1CC[C@H](O)C1)c1ccccc1 [Example 125, 2-(2-N-Methylsulfonamido-2-aminophenyl)-N-methyl-N-[(1S)-1-phenyl-2-[1-(3S)-(3-hydroxypyrrolidinyl)ethyl]]acetamide]
- Ki ([1]; Ki (nM) [3H]-Diprenorphin κ): 5.3 nM
- Late Phase Formalin (i. paw), % @ 300 [3]: 81% @ 300

Compound: CN(C(=O)Cc1ccc(C(F)(F)F)cc1NS(C)(=O)=O)[C@H](CN1CC[C@H](O)C1)c1ccccc1 [Example 126, 2-(2-N-Methylsulfonamido-2-amino-4-trifluoromethylphenyl)-N-methyl-N-[(1S)-1-phenyl-2-[1-(3S)-(3-hydroxypyrrolidinyl)ethyl]]acetamide]
- Ki ([1]; Ki (nM) [3H]-Diprenorphin κ): 0.61 nM
- Late Phase Formalin (i. paw), % @ 300 [3]: 93% @ 300

Compound: COc1ccc(CC(=O)N(C)[C@H](CN2CC[C@H](O)C2)c2ccccc2)cc1NS(C)(=O)=O [Example 127, 2-(3-N-Methylsulfonamido-3-amino-4-methoxyphenyl)-N-methyl-N-[(1S)-1-phenyl-2-[1-(3S)-(3-hydroxypyrrolidinyl)ethyl]]acetamide]
- Ki ([1]; Ki (nM) [3H]-Diprenorphin κ): 0.82 nM
- Late Phase Formalin (i. paw), % @ 300 [3]: 94% @ 300

Compound: CN(C(=O)Cc1ccc(O)c(N(S(C)(=O)=O)S(C)(=O)=O)c1)[C@H](CN1CCCC1)c1ccccc1 [Example 130, 2-(3-N-Bis-methylsulfonamido-3-amino-4-hydroxyphenyl)-N-methyl-N-[(1S)-1-phenyl-2-(1-pyrrolidinyl)ethyl]acetamide]
- Ki ([1]; Ki (nM) [3H]-Diprenorphin κ): 1.3 nM
- Late Phase Formalin (i. paw), % @ 300 [3]: 46% @ 300

Compound: CN(C(=O)Cc1cc2c(cc1S(=O)(=O)N(C)C)OCO2)[C@H](CN1CCCC1)c1ccccc1 [Example 132, 2-[2-(N-Dimethylsulfamoyl)-4,5-methylenedioxyphenyl]-N-methyl-N-[(1S)-1-phenyl-2-[(1-pyrrolidinyl)ethyl]]acetamide]
- Ki ([1]; Ki (nM) [3H]-Diprenorphin κ): 0.25 nM
- Late Phase Formalin (i. paw), % @ 300 [3]: 100% @ 300

Compound: CN(C(=O)Cc1cc2c(cc1S(=O)(=O)N(C)C)OCO2)[C@H](CN1CC[C@H](O)C1)c1ccccc1 [Example 133, 2-[2-(N-Dimethylsulfamoyl)-4,5-methylenedioxyphenyl]-N-methyl-N-[(1S)-1-phenyl-2-[1-(3S)-(3-hydroxypyrrolidinyl)ethyl]]acetamide]
- Ki [1, 4]: 0.64 nM
- Late Phase Formalin (i. paw), % @ 300 [3]: 98% @ 300

Compound: COc1cc(CC(=O)N(C)[C@H](CN2CCCC2)c2ccccc2)c(S(=O)(=O)N2CCCC2)cc1OC [Example 134, 2-[2-(N-Pyrrolidinesulfamoyl)-4,5-dimethoxyphenyl]-N-methyl-N-[(1S)-1-phenyl-2-[(1-pyrrolidinyl)ethyl]]acetamide]
- Ki ([1]; Ki (nM) [3H]-Diprenorphin κ): 0.26 nM
- Late Phase Formalin (i. paw), % @ 300 [3]: 99% @ 300

Compound: COc1cc(CC(=O)N(C)[C@H](CN2CCCC2)c2ccccc2)c(S(=O)(=O)N(C)C)cc1OC [Example 136, 2-[2-(N-Dimethylsulfamoyl)-4,5-dimethoxyphenyl]-N-methyl-N-[(1S)-1-phenyl-2-[(1-pyrrolidinyl)ethyl]]acetamide]
- Ki ([1]; Ki (nM) [3H]-Diprenorphin κ): 0.44 nM
- Late Phase Formalin (i. paw), % @ 300 [3]: 97% @ 300

Compound: COc1cc(CC(=O)N(C)[C@H](CN2CCCC2)c2ccccc2)c(S(=O)(=O)N2CCN(C)CC2)cc1OC [Example 138]
- Ki [1, 4]: 1.3 nM
- Late Phase Formalin (i. paw), % @ 300 [3]: 80% @ 300

Compound: COc1cc(CC(=O)N(C)[C@H](CN2CC[C@H](O)C2)c2ccccc2)c(S(=O)(=O)N2CCOCC2)cc1OC [Example 141, 2-[2-N-(Morpholinesulfamoyl)-4,5-dimethoxyphenyl]-N-methyl-N-[(1S)-1-phenyl-2-[1-(3S)-(3-hydroxypyrrolidinyl)ethyl]]acetamide]
- Ki ([1]; Ki (nM) [3H]-Diprenorphin κ): 1.3 nM
- Late Phase Formalin (i. paw), % @ 300 [3]: 98% @ 300

Compound: COc1cc(CC(=O)N(C)[C@H](CN2CCCC2)c2ccccc2)c(S(=O)(=O)N2CCCC2)c(OC)c1OC [Example 143, 2-[2-(N-Pyrrolidinesulfamoyl)-3,4,5-trimethoxyphenyl]-N-methyl-N-[(1S)-1-phenyl-2-[(1-pyrrolidinyl)ethyl]]acetamide]
- Ki [1, 4]: 2.1 nM
- Late Phase Formalin (i. paw), % @ 300 [3]: 98% @ 300

Compound: CNS(=O)(=O)c1cc(OC)ccc1CC(=O)N(C)[C@H](CN1CCCC1)c1ccccc1 [Example 145, 2-[2-(N-Methylsulfamoyl)-4-methoxyphenyl]-N-methyl-N-[(1S)-1-phenyl-2-[(1-pyrrolidinyl)ethyl]]acetamide]
- Ki [1, 4]: 20.5 nM
- Late Phase Formalin (i. paw), % @ 300 [3]: 83% @ 300

Compound: CNS(=O)(=O)c1ccc(CC(=O)N(C)[C@H](CN2CC[C@H](O)C2)c2ccccc2)cc1 [Example 146, 2-[4-N-(Methylsulfamoyl)-phenyl]-N-methyl-N-[(1S)-1-phenyl-2-[1-(3S)-(3-hydroxypyrrolidinyl)ethyl]]acetamide]
- Ki ([1]; Ki (nM) [3H]-Diprenorphin κ): 1 nM
- Late Phase Formalin (i. paw), % @ 300 [3]: 52% @ 300

Compound: CN(C(=O)Cc1ccc(Cl)c(Cl)c1)[C@H]1c2cc(NC(=O)/C=C\C(=O)O)ccc2CC[C@@H]1N1CCCC1 [II-24]
- Ki ([1]; Ki (nM) [3H] Diprenorphin κ): 28 nM
- Late Phase Formalin, % @ 300 μg [3]: 69% @ 300 μg

Compound: (S)-2-(2-N-Methylsulfonamido-2-aminophenyl)-N-methyl-N-1-(4-hydroxyphenyl)-2-(1-pyrrolidinyl)ethyl]acetamide [Example 129B]
- Ki [1, 4]: 75 nM
- Late Phase Formalin (i. paw), % @ 300 [3]: >46% @ 300

Compound: N-[1R,2R-trans-4-Trifluoromethyl-N-methyl-N-[2-(1-pyrrolidinyl)cyclohexyl]-phenylacetamido]glycine Hydrochloride [Example 4k]
- [3H]-Diprenorphin, % @ 1 μM [1]: 28% @ 1 μM
- Formalin (% A @ 300 μg i-paw) [3]: 80% @ 300

Compound: N-[1S. 2S-trans-4-Trifluoromethyl-N-methyl-N-[2-(1-pyrrolidinyl)cyclohexyl]-phenylacetamido]glycine Hydrochloride [Example 4j]
- Ki ([1]; read-out: Ki(nM) [3H]-Diprenorphin): 10.3 nM
- Formalin (% A @ 300 μg i-paw) [3]: 91% @ 300
